Here are results for nine molecules from patent US20190257817A1, “METHODS AND SYSTEMS FOR SCREENING CANDIDATE COMPOUNDS FOR THEIR POTENTIAL TO CAUSE SYSTEMIC OR HEPATIC TOXICITY” (Qualyst Transporter Solutions, LLC, priority 2016, published 2019).

The test system of data set [1] is SCHH. Kind of data set: Feasibility study: BA toxicity potency, Ambrisentan vs Sitaxsentan. In kind it is cell-based, human. Particulars: 2-200 uM test compound. The source says: Generally, the presently disclosed methods can in some embodiments comprise culturing SCHH with a concentration range of a bile acid (e.g. DCA), or bile acid pool to identify the toxicity profile of the bile acid (such as by measurement of ATP and/or LDH; dotted line in FIGS. 7 and 8). In a parallel study, SCHH can be exposed to a concentration range of DCA or combination of bile acids in the presence of a potential cholestatic hepatotoxicant.

The conditions of data set [2]: cited from earlier work.
For data set [3] the following is noted: cited from earlier work; for clinical toxicity: clinic; for ALT elevations≥3× upper limit normal: large clinical trials.
The next data set addresses T1, FXR (Homo sapiens, UniProt Q96RI1).
T1 construct: endogenous in cells; host or cells: SCHH (sandwich-cultured hepatocytes from donors)
T1 sequence (Q96RI1 1-486): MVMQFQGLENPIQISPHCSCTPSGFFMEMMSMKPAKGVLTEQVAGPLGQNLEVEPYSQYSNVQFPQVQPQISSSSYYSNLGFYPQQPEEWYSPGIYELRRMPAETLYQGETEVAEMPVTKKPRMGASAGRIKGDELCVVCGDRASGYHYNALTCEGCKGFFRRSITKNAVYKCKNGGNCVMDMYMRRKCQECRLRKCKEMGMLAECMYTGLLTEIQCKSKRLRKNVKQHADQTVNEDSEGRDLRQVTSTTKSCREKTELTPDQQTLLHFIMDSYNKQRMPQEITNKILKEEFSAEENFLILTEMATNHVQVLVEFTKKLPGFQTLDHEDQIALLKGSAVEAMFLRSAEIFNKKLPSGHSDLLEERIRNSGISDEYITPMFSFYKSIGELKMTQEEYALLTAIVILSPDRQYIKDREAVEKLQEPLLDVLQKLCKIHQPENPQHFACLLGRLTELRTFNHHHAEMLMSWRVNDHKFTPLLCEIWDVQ
Kind of data set: FXR antagonism: OSTβ mRNA induction in SCHH co-treated with CDCA and CsA. The class given is cell-based. The text has this:
Alternatively, the reduction of OSTβ mRNA content may be explained by cytotoxicity under the conditions evaluated.

Data set [4] concerns SCHH. The data set is described as follows: Bile acids at increasing concentrations in SCHH over 24 hours (ATP, LDH). In kind it is cell-based, human. The conditions noted are these: 24 hr exposure. How it is done:
Bile acids GCA, GCDCA and GDCA were evaluated at increasing concentrations in SCHH over 24 hours. ATP (FIG. 9) and LDH (FIG. 10) content were measured.

Another data set has as its target T2, NTCP (Homo sapiens, UniProt Q14973).
T2 sequence (Q14973 1-349): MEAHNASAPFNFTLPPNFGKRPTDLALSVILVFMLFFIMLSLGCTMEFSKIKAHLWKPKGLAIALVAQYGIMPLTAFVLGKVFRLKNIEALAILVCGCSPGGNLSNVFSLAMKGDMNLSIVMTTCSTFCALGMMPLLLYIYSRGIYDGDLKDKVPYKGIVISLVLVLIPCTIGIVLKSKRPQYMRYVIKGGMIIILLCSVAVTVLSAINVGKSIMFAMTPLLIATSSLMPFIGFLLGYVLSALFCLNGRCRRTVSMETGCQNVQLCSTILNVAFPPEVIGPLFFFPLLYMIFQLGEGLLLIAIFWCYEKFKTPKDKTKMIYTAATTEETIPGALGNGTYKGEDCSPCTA
Kind of data set: In vitro assays of NTCP inhibition.

In a further data set the target is BSEP (Homo sapiens, UniProt O95342). The data set is described as follows: In vitro assay of BSEP effect.
BSEP, sequence (O95342 whole entry, species assumed): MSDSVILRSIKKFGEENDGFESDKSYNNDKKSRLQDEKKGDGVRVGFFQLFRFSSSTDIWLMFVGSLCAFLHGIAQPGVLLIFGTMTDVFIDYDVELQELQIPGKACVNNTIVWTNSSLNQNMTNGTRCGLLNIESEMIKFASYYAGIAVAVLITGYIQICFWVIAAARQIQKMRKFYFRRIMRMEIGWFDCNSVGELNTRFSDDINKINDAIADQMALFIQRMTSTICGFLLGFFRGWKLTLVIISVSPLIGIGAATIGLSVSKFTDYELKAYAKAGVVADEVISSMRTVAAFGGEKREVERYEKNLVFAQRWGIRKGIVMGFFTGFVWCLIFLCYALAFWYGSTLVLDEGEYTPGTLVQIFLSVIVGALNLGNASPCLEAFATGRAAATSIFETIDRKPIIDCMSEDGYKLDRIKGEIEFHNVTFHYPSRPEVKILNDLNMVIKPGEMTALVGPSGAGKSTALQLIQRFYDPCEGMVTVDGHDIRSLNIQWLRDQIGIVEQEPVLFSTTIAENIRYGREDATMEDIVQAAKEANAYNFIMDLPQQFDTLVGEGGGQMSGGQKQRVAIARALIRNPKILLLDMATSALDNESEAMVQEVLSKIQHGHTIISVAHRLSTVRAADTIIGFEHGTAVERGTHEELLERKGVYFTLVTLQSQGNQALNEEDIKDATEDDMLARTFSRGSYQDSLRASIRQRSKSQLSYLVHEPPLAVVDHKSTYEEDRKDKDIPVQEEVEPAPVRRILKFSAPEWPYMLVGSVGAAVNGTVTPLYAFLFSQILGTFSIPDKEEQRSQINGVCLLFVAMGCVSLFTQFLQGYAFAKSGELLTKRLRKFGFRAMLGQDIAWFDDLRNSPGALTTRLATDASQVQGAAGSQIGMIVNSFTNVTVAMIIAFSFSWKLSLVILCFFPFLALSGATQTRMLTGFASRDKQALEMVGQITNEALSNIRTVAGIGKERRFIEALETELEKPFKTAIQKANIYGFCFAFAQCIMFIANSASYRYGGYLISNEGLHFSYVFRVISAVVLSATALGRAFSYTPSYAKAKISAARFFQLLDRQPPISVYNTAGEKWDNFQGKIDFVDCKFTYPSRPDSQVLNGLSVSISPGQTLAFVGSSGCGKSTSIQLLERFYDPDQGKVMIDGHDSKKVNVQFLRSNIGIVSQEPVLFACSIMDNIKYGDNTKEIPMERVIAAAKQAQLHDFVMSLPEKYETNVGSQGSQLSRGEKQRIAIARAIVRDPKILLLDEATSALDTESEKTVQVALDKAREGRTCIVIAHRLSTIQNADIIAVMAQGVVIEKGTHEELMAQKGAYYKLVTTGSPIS
Data set [5] has as its system sandwich-cultured human hepatocytes. The data set is described as follows: Bile acid pool toxicity profile shift in SCHH, ApoTox-Glo Triplex Assay. The conditions noted are these: 5 mM and 11 mM glucose. In kind it is cell-based.
Description: Utilizing similar methodology from the previous sections, hepatotoxicity was evaluated with ApoTox-Glo™ Triplex Assay.
The effects of the test compounds were evaluated in the presence of the individual bile acids and in the presence of a bile acid pool. The effects were compared to bile acid treatment alone. DMSO treatment alone was used as a comparator for hepatotoxicity. Hepatotoxicity was evaluated with ApoTox-Glo™ Triplex Assay, which assesses viability, cytotoxicity and apoptosis.
A bile acid mixture was evaluated, and was composed of 4 different bile acids maintained at a physiological relevant ratio of each bile acid. […] Individual bile acids were dosed using the concentration they represent in the mixture.
A treatment group without free fatty acids was used as a control. Hepatotoxicity was evaluated with ApoTox-Glo™ Triplex Assay which assessed viability, cytotoxicity and apoptosis.
Data set [6] relates to SCHH. The data set is described as follows: Cholestasis hepatotoxicity screening assay in SCHH (LDH leakage, ATP content), standard vs sensitization medium. The class given is cell-based. The conditions noted are these: human, 24 h, 100 μM. The text has this:
As discussed above, hepatocytes become susceptible to bile acid toxicity (e.g. cholestatic hepatotoxicity) when drug exposure inhibits bile acid efflux routes (e.g. BSEP and/or MRP3/4) and 1) prevents (antagonize) FXR from sensing the rising intracellular concentrations of bile acids; or 2) inhibits bile acid efflux through OSTα/β; or 3) a combination of both. […] Briefly, hepatocytes were established in a sandwich-cultured configuration for four days. […] Drug exposures ranged from about 8× to about 16× Cmax to account for concentrating effect that can occur in the portal vein following oral administration of test compounds. Following 24 hours, LDH leakage and ATP content was evaluated utilizing commercially available assays.
The sensitization medium included free fatty acids and a physiological mixture of primary and secondary bile acids, described above (GCDCA, GCA, DCA, and GDCA) at an adequate concentration (250 μM) that minimized toxicity but challenged the hepatocytes bile acid homeostasis mechanism.

[7] abbreviates: conditions used to examine FXR antagonism.

The structures appear in SMILES notation. “Also recorded” adds a separate entry of the source. Where two headings read alike, the source gives them in different places. Bounds are passed on as bounds.

On to `COC(c1ccccc1)(c1ccccc1)[C@H](Oc1nc(C)cc(C)n1)C(=O)O` [Ambrisentan], for which the BA toxicity potency entry in the data set on SCHH [1] is listed as “No change in BA toxicity potency”. For the same molecule, the Cmax in data set [2] (in vivo) is 3000 nM. Further, the clinical toxicity result in data set [3] was “Well tolerated; no toxicity”.

Turning to `COc1cccc(Cn2cc(C(=O)Nc3ccc(C)c(S(=O)(=O)N4CCOCC4)c3)c(-c3ccc(C)cc3)n2)c1` [DY268], the “induction of OSTβ mRNA content” value on FXR (SCHH co-treated with CDCA and CsA, troglitazone 75-100 μM) is listed as “A similar effect was observed”.

Regarding `C[C@H](CCC(=O)NCC(=O)O)[C@H]1CC[C@H]2[C@@H]3[C@H](O)C[C@@H]4C[C@H](O)CC[C@]4(C)[C@H]3C[C@H](O)[C@]12C` [GCA], the “cytotoxicity of bile acid” value in the data set on SCHH [4] (increasing concentrations, ATP and LDH) is reported as “not cytotoxic”.

For the molecule `C[C@H](CCC(=O)NCC(=O)O)[C@H]1CC[C@H]2[C@@H]3[C@H](O)C[C@@H]4C[C@H](O)CC[C@]4(C)[C@H]3CC[C@]12C` [GCDCA], in the data set on SCHH [4], the “relative toxicity in the ATP assay” value was “equaled GDCA” and the “relative toxicity in the LDH assay” value was “GDCA was greater than GCDCA”.

For the molecule `C[C@H](CCC(=O)NCC(=O)O)[C@H]1CC[C@H]2[C@@H]3CC[C@@H]4C[C@H](O)CC[C@]4(C)[C@H]3C[C@H](O)[C@]12C` [GDCA], in the data set on SCHH [4], the “relative toxicity in the ATP assay” value is reported as “GCDCA equaled GDCA” and the “relative toxicity in the LDH assay” value is on record as “greater than GCDCA”.

For `Cc1cc2c(cc1CC(=O)c1sccc1S(=O)(=O)Nc1onc(C)c1Cl)OCO2` [Sitaxsentan], at NTCP, the NTCP effect result was “potent/efficacious NTCP inhibitor”. In addition, the BA toxicity potency result with SCHH [1] is reported as “Decreased BA toxicity potency”. For the same molecule, the BSEP effect entry at BSEP was “no BSEP effect”. Besides, in data set [5], the “effect on hepatotoxicity of the bile acid pool” value was “did not alter the hepatotoxicity of the bile acid pool”. For the same molecule, the Cmax in [2] (in vivo) was 23500 nM. Also, in data set [3], the clinical toxicity entry is reported as “Toxicity in clinic after 5 months; liver likely not primary site of toxicity; also recorded: No toxicity @ 3 months”.

Turning to `CCc1ccc(CCOc2ccc(CC3SC(=O)NC3=O)cc2)nc1` (stereo not shown) [pioglitazone], the Cmax in data set [2] (Dawson et al. 2012) was 2900 nM. In addition, in data set [3], the “ALT elevations≥3× upper limit normal” value was “not different from placebo recipients”.

With `CN(CCOc1ccc(CC2SC(=O)NC2=O)cc1)c1ccccn1` (stereo not shown) [rosiglitazone], the maximum concentration (Cmax) in data set [2] (Dawson et al. 2012) is 1000 nM. In addition, in [3], the “ALT elevations≥3× upper limit normal” value is reported as “not different from placebo recipients”.

For the molecule `Cc1c(C)c2c(c(C)c1O)CCC(C)(COc1ccc(CC3SC(=O)NC3=O)cc1)O2` (stereo not shown) [troglitazone], at FXR (setting [7]), the ATP content result was “no significant decreases of ATP content” and the LDH leakage entry is given as “no significant decreases of ATP content or increases of LDH leakage”. In the data set with SCHH [6], the ATP content is reported as 0.9 % of control, the LDH leakage is 863 % of control, the LDH secretion is on record as 490 % of control and the “loss of ATP content” value is > 99 % of control.
